In publication PMC12808100, “The non-catalytic DNA polymerase ε subunit is an NPF motif recognition protein” (Nature Communications, 2025):

Experiments:
[1] = molecular target: T1, UBE2N (Homo sapiens, UniProt P61088); experiment: nHU-MS peptide bait, prey UBE2N; settings: FigureS2 Volcano; prey UBE2N
T1 sequence (P61088 1-152): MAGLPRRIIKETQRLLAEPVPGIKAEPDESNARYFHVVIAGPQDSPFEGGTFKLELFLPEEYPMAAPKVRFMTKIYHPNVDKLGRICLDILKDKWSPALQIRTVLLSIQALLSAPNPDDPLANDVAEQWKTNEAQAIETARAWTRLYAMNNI

[2] = molecular target: T2, GYPC (Homo sapiens, UniProt P04921); experiment: nHU-MS peptide bait, prey GYPC; settings: FigureS2 Volcano; prey GYPC
T2 sequence (P04921 1-128): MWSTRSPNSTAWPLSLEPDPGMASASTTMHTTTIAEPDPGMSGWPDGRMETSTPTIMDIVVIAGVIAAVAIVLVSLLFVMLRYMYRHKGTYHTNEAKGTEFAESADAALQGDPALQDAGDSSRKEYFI

[3] = molecular target: His6-avi-MBP-tagged POLE2; experiment: Single-point nHU-MS with recombinant His6-avi-MBP-POLE2 bait, Jurkat extract; format: binding, human; settings: significant apparent affinity of endogenous prey protein for POLE2 bait; single-point nHU-MS; Figure S11
Text: So far, our study only focused on a few hand-picked NPF motifs and studied them as short synthetic peptides. However, many other proteins may be present in the proteome that could bind to POLE2 and their putative NPF motifs are embedded in their natural structures that can greatly affect their binding properties. To investigate interactions between POLE2 and intact, full length proteins proteome-wide, we used nHU-MS experiments with recombinant His6-avi-MBP-tagged POLE2 as bait and purified His6-avi-MBP as a control. Even though we are aware that this recombinant POLE2 may bind to NPF motifs with a somewhat altered affinity, we assumed that this would affect all NPF motif-mediated interactions equally, allowing an unbiased affinity ranking of all identified partners. Single point nHU measurements were performed at 26 μM POLE2 concentration and the recovered supernatant was measured by label free proteomic MS measurements (Fig. 3A, Supplementary Figs. 8A, 9, Supplementary Data 1).
Single-point nHU experiments with protein baits were carried out nearly identically with two key modifications. First, the resin saturation step was carried out by mixing 50 μl streptavidin resin with 0.5−1 ml 50 μM biotinylated protein solution and the mixture was incubated for 1.5 h at 4 °C with constant agitation. Second, instead of using estimated bait concentrations, we measured it experimentally. An extra aliquot of resin stock was prepared alongside the nHU samples that were identically processed that were used to eluate the immobilized proteins under harsh conditions, in order to experimentally quantify the Cbait by using densitometry of Coomassie stained SDS-PAGE that included a protein calibration series. For this, 50 μl bait-saturated resin aliquots were mixed with 200 μl 4x Laemmli Sample Buffer (120 mM Tris-HCl pH 7, 8% SDS, 100 mM DTT, 32% glycerol, 0.004% bromphenol blue, 1% β-mercaptoethanol), instead of cell extract. After 15 min incubation at 95 °C, these samples were analyzed by SDS-PAGE using protein calibration standard, made from recombinant MBP. Densitometry was carried out after Coomassie staining on raw Tif images by using Fiji ImageJ 1.53c and experimental bait concentration were determined by adjusting for molecular weight differences between MBP and MBP-POLE2 constructs.
Samples were digested overnight at 37 °C.

[4] = system: endogenous proteins of Jurkat extract; experiment: Single-point nHU-MS with biotinylated NPF motif peptide baits, proteome-wide; format: binding, human; settings: FigureS2 Volcano; prey WASHC3
Text: To identify the partners of NPF motifs, we used the native holdup (nHU) assay that was recently developed by our team (Fig. 1B). The holdup approach has been extensively used to determine equilibrium dissociation constants of transient interactions mediated by PDZ and SH3 domains, 14-3-3, and human papilloma virus E6 proteins, and even nucleic acid-protein interactions[7],[30]–[35]. In the nHU experiments, a purified bait molecule, or a control compound, is immobilized on a resin at high concentration (typically 10 μM, or higher) and these resin stocks are subsequently mixed with dilute cell extracts. […] This liquid phase contains the unbound prey molecules at near binding equilibrium that can be quantified using selective and quantitative analytical approaches, such as mass spectrometry. Therefore, proteins that interact with the bait molecule will appear to be depleted in the solvent phase and by measuring its relative concentration compared to the control nHU experiment, the degree of binding (θ) can be determined that can be converted to apparent steady-state dissociation constants, according to:1 θ=1−Ifree/Itot=Cbait/Cbait+Kapp where Itot and Ifree are the measured total and bait-depleted equilibrium mass spectrometry total ion intensities of prey proteins, Cbait is the bait molecule concentration and Kapp is the apparent dissociation constant. […]

[5] = molecular target: T3, EHD4 (Homo sapiens, UniProt Q9H223); experiment: nHU-MS peptide bait, prey EHD4; settings: FigureS2 Volcano; prey EHD4
T3 sequence (Q9H223 1-541): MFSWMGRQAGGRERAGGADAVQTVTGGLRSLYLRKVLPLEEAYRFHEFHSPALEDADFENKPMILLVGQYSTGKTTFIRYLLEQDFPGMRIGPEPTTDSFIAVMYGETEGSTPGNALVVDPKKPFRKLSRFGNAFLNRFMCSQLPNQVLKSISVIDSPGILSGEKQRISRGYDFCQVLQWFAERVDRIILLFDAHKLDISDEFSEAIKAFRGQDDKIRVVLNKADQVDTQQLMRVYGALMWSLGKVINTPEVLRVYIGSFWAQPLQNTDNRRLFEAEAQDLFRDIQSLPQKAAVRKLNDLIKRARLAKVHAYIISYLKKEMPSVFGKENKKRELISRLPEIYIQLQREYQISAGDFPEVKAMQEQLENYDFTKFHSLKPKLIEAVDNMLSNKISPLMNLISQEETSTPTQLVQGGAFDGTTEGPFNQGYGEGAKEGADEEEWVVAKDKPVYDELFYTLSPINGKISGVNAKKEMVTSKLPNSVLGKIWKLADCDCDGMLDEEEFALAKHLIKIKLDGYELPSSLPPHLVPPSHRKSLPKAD

NSVD [WDHD1]
-log10P [1]: 4.615
log2FC [1]: -0.5674
-log10P [2]: 4.7052
log2FC [2]: -0.6216
pKapp_sign [3]: 5.025
log2FC [4]: -0.6642
-log10P [5]: 4.524
log2FC [5]: -0.6115
